The test system of the assay is HSV-1 (KOS) gL86. Nature of the assay: HSV-1 entry into primary human corneal fibroblasts (CF). It is filed as cell-based, herpes simplex virus type-1. The settings on record: CF, 6 h, ONPG (FIG. 4A). On the procedure: HSV-1 entry was assayed as described in Shukla et al., Cell 99:13-22 (1999). CHO-K1 cells were grown in 6-well plates to subconfluence and then transfected with 2.5 μg of expression plasmids for gD receptors nectin-1 (pBG38), HVEM (pBec10), 3-OST-3 isoform (pDS43), or pCDNA3.1 (empty vector) using LipofectAMINE (Gibco/BRL). At 16 h post-transfection, the cells were replated into 96-well dishes for pre-incubation with peptides at different concentrations for 60 min at room temperature. In parallel, natural target cells (HeLa, CF, and RPE) were also pre-treated with the peptides for the same duration. In all cases, unbound peptides were removed after washing 3× with PBS. Thereafter, cells were infected for 6 h with a recombinant virus, HSV-1 (KOS) gL86, at multiple plaque forming units (PFUs) and β-galactosidase assays were performed using either a soluble substrate o-nitrophenyl-β-D-galactopyranoside (ONPG at 3.0 mg/ml; ImmunoPure, Pierce) or X-gal (Sigma). For the soluble substrate, the enzymatic activity was measured at 410 nm using a micro-plate reader (Spectra Max 190, Molecular Devices, Sunnyvale, Calif.). For the X-gal assay, cells were fixed (2% formaldehyde and 0.2% glutaraldehyde) and permeabilized (2 mM MgCl2, 0.01% deoxycholate, and 0.02% nonidet NP-40 (Sigma)). 1 ml of β-galactosidase reagent (1.0 mg/ml X-gal in ferricyanide buffer) was added to each well and incubated at 37° C. for 90 min before the cells were examined using bright field microscopy under the 20× objectives of the inverted microscope (Zeiss Axiovert 100 M).
The ability of the G1 and G2 peptides to block HSV-1 entry into natural target cells (HeLa and primary cultures of human CF) was compared. A similar dosage response curve was generated when HeLa (FIG. 2A) or CF (FIG. 2B) were pre-treated with G1 or G2 peptides during HSV-1 entry. […] HeLa cells (FIG. 2A) and primary cultures of human corneal fibroblasts (CF) (FIG. 2B) were tested. Cells in 96-well plates were pre-treated for 60 min with indicated mM concentrations of G1, G2, or Cp peptides. Mock-treated cells (abbreviated as C) served as a control. Pretreated cells were infected with a β galactosidase-expressing recombinant virus HSV-1 (KOS) HSV-1 gL86 (25 pfu/cell) for 6 hr. Viral entry was quantitated as described above in reference to FIG. 1. Confirmation of HSV-1 entry blocking activity of G1, G2, and control (Cp) peptides on a per cell basis was obtained after cells were infected as described above followed by X-gal (1.0 mg/ml) staining (Right panels), which yields an insoluble blue product upon hydrolysis by β-galactosidase expressed from the input viral genomes. […] Microscopy was performed using a 20× objective of Zeiss Axiovert 100.
To better understand the inhibitory potential of G1 and G2 peptides, synthetic short variants (10-mer) were synthesized that lacked the terminal non-positively charged amino acids. In case of G1, N-terminus L and C-terminus H residues were removed. For G2, the N-terminus flanking residues (M and P) were removed. Without being bound by theory, it is believed that 12-mer peptides are too short to adopt substantial secondary or tertiary structures and that the primary structure of those peptides, which includes a defined sequence or groupings of positively charged residues, plays a critical role in mediating inhibition of HSV-1 entry. Synthetic 10-mer versions of G1 and G2 (shown above) were tested for blocking HSV-1(KOS)gL86 entry into cultured CF. After 6 h, the viral entry was measured by ONPG assay as described in FIG. 1.
Alanine (A) scanning mutagenesis was performed to identify specific amino acid residues responsible for each peptide's function, stability, and conformation. O'Nuallain et al., Biochemistry 46:13049-13058 (2007). Twelve synthetic peptides were made whereby each residue of G2 was sequentially replaced with an alanine residue and corresponding changes in the G2 peptide were evaluated for their ability to affect viral entry (FIG. 4B). […]

RRRRIRRRQK [10-mer version of G2]: the “ability of 10-mer version to block HSV-1 entry compared with 12-mer” value is “very similar to the 12-mer in its ability to block HSV-1 entry”.

In the case of RSRTKIIRIR [10-mer version of G1], the “ability of 10-mer version to block HSV-1 entry compared with 12-mer” value is on record as “almost completely lost its ability to block HSV-1 entry”.

(Values after patent US9464113B2, “Anti-heparan sulfate peptides that block herpes simplex virus infection in vivo” (The Board of Trustees of the University of Illinois, priority 2010, dated 2016).)
